How the values were obtained:
Endothelin-1 receptor = biological target: T1, Endothelin-1 receptor (Homo sapiens, UniProt P25101)
T1 sequence (P25101 whole entry): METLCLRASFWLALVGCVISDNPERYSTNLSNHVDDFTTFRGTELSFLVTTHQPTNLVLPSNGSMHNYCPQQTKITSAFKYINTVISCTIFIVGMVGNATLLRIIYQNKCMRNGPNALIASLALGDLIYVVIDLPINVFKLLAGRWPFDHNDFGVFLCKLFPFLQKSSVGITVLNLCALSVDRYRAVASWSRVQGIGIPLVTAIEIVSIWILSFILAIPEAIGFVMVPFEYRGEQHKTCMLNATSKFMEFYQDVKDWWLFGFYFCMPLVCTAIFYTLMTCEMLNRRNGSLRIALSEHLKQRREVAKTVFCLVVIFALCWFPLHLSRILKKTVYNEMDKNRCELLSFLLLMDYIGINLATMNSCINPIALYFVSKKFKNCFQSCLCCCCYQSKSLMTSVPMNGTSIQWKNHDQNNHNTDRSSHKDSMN

[1] = biological target: T2, Gastrin/cholecystokinin type B receptor (Homo sapiens, UniProt P32239)
T2 sequence (P32239 whole entry): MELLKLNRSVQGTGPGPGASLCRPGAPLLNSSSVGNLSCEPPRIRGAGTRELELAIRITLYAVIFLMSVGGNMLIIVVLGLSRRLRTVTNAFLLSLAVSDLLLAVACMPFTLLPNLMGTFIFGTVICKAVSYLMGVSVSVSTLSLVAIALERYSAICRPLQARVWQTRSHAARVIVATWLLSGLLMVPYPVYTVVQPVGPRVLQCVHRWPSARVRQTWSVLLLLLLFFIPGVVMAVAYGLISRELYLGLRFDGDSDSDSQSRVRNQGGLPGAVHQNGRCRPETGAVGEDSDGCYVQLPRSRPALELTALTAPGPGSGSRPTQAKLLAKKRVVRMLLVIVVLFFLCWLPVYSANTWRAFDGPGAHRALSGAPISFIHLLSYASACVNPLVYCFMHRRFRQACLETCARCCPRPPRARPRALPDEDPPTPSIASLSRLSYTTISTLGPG

Adenosine receptor A1 = biological target: T3, Adenosine receptor A1 (Homo sapiens, UniProt P30542)
T3 sequence (P30542 whole entry): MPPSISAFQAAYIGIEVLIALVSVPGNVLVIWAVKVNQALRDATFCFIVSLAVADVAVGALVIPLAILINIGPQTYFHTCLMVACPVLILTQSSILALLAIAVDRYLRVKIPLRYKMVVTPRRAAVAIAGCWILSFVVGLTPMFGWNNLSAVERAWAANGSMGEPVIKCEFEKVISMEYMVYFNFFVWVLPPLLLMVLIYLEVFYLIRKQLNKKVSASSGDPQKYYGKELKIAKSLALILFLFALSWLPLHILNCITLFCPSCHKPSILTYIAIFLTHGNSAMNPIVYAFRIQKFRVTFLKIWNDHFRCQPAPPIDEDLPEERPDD

Histamine H1 receptor = Histamine H1 receptor (Homo sapiens, UniProt P35367)
Progesterone receptor = biological target: T4, Progesterone receptor (Homo sapiens, UniProt P06401); type: functional
T4 sequence (P06401 whole entry): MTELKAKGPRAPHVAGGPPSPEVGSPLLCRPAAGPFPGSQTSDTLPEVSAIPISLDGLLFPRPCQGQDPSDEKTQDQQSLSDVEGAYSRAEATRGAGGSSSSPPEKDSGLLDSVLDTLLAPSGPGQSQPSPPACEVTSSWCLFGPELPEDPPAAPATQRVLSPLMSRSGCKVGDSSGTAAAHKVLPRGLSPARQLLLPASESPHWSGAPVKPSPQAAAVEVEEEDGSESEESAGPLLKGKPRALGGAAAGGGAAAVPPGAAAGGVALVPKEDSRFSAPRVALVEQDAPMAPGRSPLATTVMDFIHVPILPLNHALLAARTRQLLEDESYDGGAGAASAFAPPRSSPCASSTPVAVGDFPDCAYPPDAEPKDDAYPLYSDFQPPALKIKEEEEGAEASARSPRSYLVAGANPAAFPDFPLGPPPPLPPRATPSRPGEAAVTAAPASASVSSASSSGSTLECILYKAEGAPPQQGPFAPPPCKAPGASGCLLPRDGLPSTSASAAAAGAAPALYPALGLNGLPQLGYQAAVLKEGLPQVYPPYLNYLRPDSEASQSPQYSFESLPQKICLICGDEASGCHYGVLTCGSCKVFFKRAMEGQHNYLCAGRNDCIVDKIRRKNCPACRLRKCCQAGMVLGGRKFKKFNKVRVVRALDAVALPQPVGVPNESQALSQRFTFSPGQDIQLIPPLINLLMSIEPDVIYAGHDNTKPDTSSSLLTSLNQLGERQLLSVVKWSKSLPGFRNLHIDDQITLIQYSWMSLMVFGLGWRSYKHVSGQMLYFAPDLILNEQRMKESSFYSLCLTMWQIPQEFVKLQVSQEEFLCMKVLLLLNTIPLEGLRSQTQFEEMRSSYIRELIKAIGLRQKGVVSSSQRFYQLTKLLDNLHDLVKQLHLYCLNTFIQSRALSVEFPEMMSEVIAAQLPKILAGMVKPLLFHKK

Mu-type opioid receptor = Mu-type opioid receptor (Homo sapiens, UniProt P35372); assay: biochemical; type: functional
[2] = biological target: T5, Muscarinic acetylcholine receptor M2 (Homo sapiens, UniProt P08172); type: functional, cell-based
T5 sequence (P08172 whole entry): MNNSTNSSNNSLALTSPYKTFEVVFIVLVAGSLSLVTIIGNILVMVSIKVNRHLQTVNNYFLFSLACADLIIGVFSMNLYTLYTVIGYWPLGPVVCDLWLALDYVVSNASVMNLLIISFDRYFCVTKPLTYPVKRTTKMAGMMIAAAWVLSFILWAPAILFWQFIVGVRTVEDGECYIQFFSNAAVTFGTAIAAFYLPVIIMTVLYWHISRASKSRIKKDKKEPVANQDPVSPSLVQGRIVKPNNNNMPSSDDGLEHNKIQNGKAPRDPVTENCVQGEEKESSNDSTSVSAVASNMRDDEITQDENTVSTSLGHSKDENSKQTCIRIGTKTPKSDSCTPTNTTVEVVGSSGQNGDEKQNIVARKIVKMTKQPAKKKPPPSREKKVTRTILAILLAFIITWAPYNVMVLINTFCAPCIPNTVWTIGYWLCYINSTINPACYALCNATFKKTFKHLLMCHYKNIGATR
Also: assay procedure not described here.

Sequence of Mu-type opioid receptor (P35372 whole entry): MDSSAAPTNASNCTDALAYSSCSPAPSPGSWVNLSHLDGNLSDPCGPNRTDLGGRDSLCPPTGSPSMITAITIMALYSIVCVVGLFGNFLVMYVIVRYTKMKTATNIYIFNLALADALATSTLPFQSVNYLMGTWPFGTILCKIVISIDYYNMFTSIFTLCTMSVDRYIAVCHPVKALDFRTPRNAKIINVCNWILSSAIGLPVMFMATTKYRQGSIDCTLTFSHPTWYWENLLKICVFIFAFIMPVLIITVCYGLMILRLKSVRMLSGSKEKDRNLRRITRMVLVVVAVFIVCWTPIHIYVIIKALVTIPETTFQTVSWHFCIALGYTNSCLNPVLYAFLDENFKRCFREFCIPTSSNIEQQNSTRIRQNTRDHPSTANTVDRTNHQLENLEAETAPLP
Sequence of Histamine H1 receptor (P35367 whole entry): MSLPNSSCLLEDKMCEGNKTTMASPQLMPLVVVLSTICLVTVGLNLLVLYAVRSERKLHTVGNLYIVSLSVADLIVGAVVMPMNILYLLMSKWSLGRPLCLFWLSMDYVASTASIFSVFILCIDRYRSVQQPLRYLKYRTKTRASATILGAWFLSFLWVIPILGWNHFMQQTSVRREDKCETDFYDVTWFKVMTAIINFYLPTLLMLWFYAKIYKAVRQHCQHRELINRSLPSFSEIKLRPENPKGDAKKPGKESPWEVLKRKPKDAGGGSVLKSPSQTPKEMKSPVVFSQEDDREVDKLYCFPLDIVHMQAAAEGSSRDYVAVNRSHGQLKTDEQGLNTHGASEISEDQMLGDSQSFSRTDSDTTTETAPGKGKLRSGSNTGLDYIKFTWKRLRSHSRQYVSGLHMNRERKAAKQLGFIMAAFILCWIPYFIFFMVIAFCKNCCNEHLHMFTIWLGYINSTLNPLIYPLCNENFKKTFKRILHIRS

Row | SMILES | AC50 (Endothelin-1 receptor) [µM] | AC50 [1] [µM] | AC50 (Adenosine receptor A1) [µM] | AC50 (Histamine H1 receptor) [µM] | AC50 (Progesterone receptor) [µM] | AC50 (Mu-type opioid receptor) [µM] | AC50 [2] [µM]
1 | C[C@]1(COc2ccc(N3CCC(Oc4ccc(OC(F)(F)F)cc4)CC3)cc2)Cn2cc([N+](=O)[O-])nc2O1 | > 30 | > 30 | > 30 | > 10 | – | – | –
2 | CC(=O)OCC[N+](C)(C)C [ACETYLCHOLINE] | > 30 | > 30 | > 30 | > 10 | 29 | – | –
3 | O=C(Nc1nc(-c2cc(Cl)cs2)c(N2CCN(C3CCCCC3)CC2)s1)c1cnc(N2CCC(C(=O)O)CC2)c(Cl)c1 [AVATROMBOPAG] | > 10 | > 10 | > 30 | > 10 | – | – | –
4 | CO/N=C(\C(=O)N[C@@H]1C(=O)N2C(C(=O)[O-])=C(C[n+]3cccc4c3CCC4)CS[C@H]12)c1csc(N)n1 [CEFPIROME] | – | – | > 30 | > 30 | – | > 30 | > 30
5 | CC[C@H]1OC(=O)[C@H](C)[C@@H](O[C@H]2C[C@@](C)(OC)[C@@H](O)[C@H](C)O2)[C@H](C)[C@@H](O[C@@H]2O[C@H](C)C[C@H](N(C)C)[C@H]2O)[C@](C)(OC)C[C@@H](C)C(=O)[C@H](C)[C@@H](O)[C@]1(C)O [CLARITHROMYCIN] | > 30 | > 30 | > 30 | – | > 30 | > 30 | > 30
6 | Oc1c(I)cc(Cl)c2cccnc12 [CLIOQUINOL] | – | – | > 30 | > 30 | – | > 30 | –
